The results in this text go back to patent US20230310477A1, “PHARMACEUTICAL COMPOSITION COMPRISING ABELIOPHYLLUM DISTICHUM EXTRACT AS ACTIVE INGREDIENT FOR TREATING ANDROGEN RECEPTOR-RELATED DISEASE” (priority 2020, published 2023).

In assay [1] the test system is AR. The experiment in a line: Western blotting of AR in prostate tissue of BPH animal model. The note with it: oral 1 mg/kg or 10 mg/kg, 4 weeks; depending on intake concentration. It is filed as in vivo, SD rats. On the technique in general: Immunoblotting shows a protein as a band on a membrane.
Assay [2] relates to 5α-reductase 2 (5AR2). The experiment in a line: Western blotting of 5AR2 in prostate tissue of BPH animal model. It is filed as in vivo, SD rats. The note with it: oral 1 mg/kg or 10 mg/kg, 4 weeks; depending on intake concentration. The procedure: (§1) All experiments were conducted in an aseptic environment. Three days after surgical recovery for the BPH-induced group (BPH), testosterone was dissolved in corn oil and then subcutaneously injected daily at 3 mg/kg, inducing BPH. For an Abeliophyllum distichum leaf ethanol extract-administered group (BPH+ADLE), an Abeliophyllum distichum leaf ethanol extract was dissolved in sterile distilled water and orally administered using a zonde at 100 mg/kg for 4 weeks. […]
(§2) For animal experimental groups, protein expression of androgen signaling-related factors, 5α-reductase 2 (5AR2), steroid receptor coactivator 1 (SRC1), an estrogen receptor (ER), and a prostate-specific antigen (PSA), were analyzed. […] Subsequently, bands were then detected using an Azure c300 imaging system (Azure Biosystems) by chemiluminescence with an HPR substrate (Advanta Inc., San Jose, CA, USA). Band intensities were quantified by setting the area of each sample using ImageJ software (NIH ver. 1.48, USA) and then setting the area of corresponding β-actin in the same manner as used above, and dividing the area of β-actin by the area of each sample.

Assay [3] concerns PCNA. The experiment in a line: Western blotting of PCNA expression in testosterone-treated BPH-1 cells. It is filed as cell-based. The note with it: testosterone 100 nM, 25, 50 and 100 μM, 24 hours, concentration dependent.
In assay [4] the test system is PI3K. The experiment in a line: Western blotting of PI3K expression in testosterone-treated BPH-1 cells. Type of assay: cell-based. The note with it: testosterone 100 nM, 25, 50 and 100 μM, 24 hours, concentration dependent.
Assay [5] deals with prostate-specific antigen (PSA). The experiment in a line: Western blotting of testosterone-induced PSA expression in LNCaP cells. It is filed as cell-based. The note with it: compared among IQ, Rutin, CA and IR.
Method: (§3) The LNCaP cells (2×10^6) were seeded in 6-well plates, and treated with 100 nM testosterone propionate (TP, Tokyo Chemical Industry) and 100 μg/mL each of Abeliophyllum distichum leaf hot water (D.W.), ethanol (EtOH), and hexane (Hexane) extracts for 24 hours. Here, a group treated with 1 μg/mL finasteride (Fi), which is an androgen inhibiting drug, was used as a positive control. After finishing the treatment of the cells, an androgenic receptor signaling-inhibitory effect was analyzed using western blotting. First, the cells were lysed in a protein inhibitor cocktail (Sigma)-containing radioimmunoprecipitation assay (RIPA) buffer, and a protein concentration was estimated using a BCA assay, followed by electrophoresis in a 12% SDS polyacrylamide gel. The gel was then transferred to a membrane using Mini Trans-Blot cells (Bio rad). Subsequently, the membrane was treated with primary antibodies at 4° C. for 12 hours. […] Bands were then detected using an Azure c300 imaging system (Azure Biosystems) by chemiluminescence with an HPR substrate (Advansta Inc., San Jose, CA, USA). Band intensities were quantified by setting the area of each sample using ImageJ software (NIH ver. 1.48, USA) and then setting the area of corresponding β-actin in the same manner as used above, and dividing the area of β-actin by the area of each sample.
Assay [6] concerns cyclin D1. In words: Western blotting of cyclin D1 expression in testosterone-treated BPH-1 cells. It is filed as cell-based. The note with it: testosterone 100 nM, 25, 50 and 100 μM, 24 hours, concentration dependent.
The test system of assay [7] is 5 alpha reductase (5AR2). In words: Western blotting of testosterone-induced 5AR2 expression in LNCaP cells. It is filed as cell-based.
Method: as §3
For assay [8], the system named is PI3K. In words: Western blotting of testosterone-induced PI3K expression in prostatic cells. It is filed as cell-based. The note with it: depending on the concentration of isoquercetin.
For assay [9], the system named is steroid receptor coactivator 1 (SRC1). The experiment in a line: Western blotting of SRC1 in prostate tissue of BPH animal model. It is filed as in vivo, SD rats. The note with it: oral 1 mg/kg or 10 mg/kg, 4 weeks; depending on intake concentration. The procedure: as §1, §2
Assay [10] deals with BPH animal models. In words: Prostate indexes in BPH animal model. Type of assay: in vivo, SD rats. The note with it: 4 weeks. Here is the method: All experiments were conducted in an aseptic environment. Three days after surgical recovery for the BPH-induced group (BPH), testosterone was dissolved in corn oil and then subcutaneously injected daily at 3 mg/kg, inducing BPH. For an Abeliophyllum distichum leaf ethanol extract-administered group (BPH+ADLE), an Abeliophyllum distichum leaf ethanol extract was dissolved in sterile distilled water and orally administered using a zonde at 100 mg/kg for 4 weeks. For a saw palmetto-administered group (BPH+Saw) as a positive control, saw palmetto was dissolved in sterile distilled water and orally administered at 100 mg/kg, and for a finasteride-administered group (BPH+Fi), finasteride was orally administered using a zonde at 1 mg/kg per day for 4 weeks. After the experiment, the rats were sacrificed using zoletil, blood samples were collected through heart puncture, and serum was then separated and stored at −80° C. The prostate was separated and weighed using RNAse-free surgical tools, and stored at −80° C., followed by western blotting.
Meanwhile, isoquercetin (IQ) administration was also performed in the same manner and using the same controls as described above, and for a low concentration-administered group (BPH+IQ1), IQ was dissolved in sterile distilled water and then orally administered at 1 mg/kg, and for a high concentration-administered group (BPH+IQ10), IQ was dissolved in sterile distilled water and then orally administered using a zonde at 10 mg/kg for 4 weeks.

For assay [11], the system named is androgenic receptor (AR). In words: Western blotting of testosterone-induced AR expression in LNCaP cells. It is filed as cell-based. The procedure:
LNCaP cells were treated with testosterone propionate (TP) to induce androgenic receptor signaling, treated with Abeliophyllum distichum leaf hot water (D.W.), ethanol (EtOH), and hexane (Hexane) extracts, followed by confirming the efficacy of inhibiting the expression of an androgenic receptor (AR, SantaCruz), 5 alpha reductase (5AR2, ABCam), and prostate-specific antigen (PSA, SantaCruz) to compare the inhibitory effect on androgenic receptor signaling-related factors per Abeliophyllum distichum leaf extract LNCaP cells in LNCaP cells. The LNCaP cells (2×10^6) were seeded in 6-well plates, and treated with 100 nM testosterone propionate (TP, Tokyo Chemical Industry) and 100 μg/mL each of Abeliophyllum distichum leaf hot water (D.W.), ethanol (EtOH), and hexane (Hexane) extracts for 24 hours. […] After finishing the treatment of the cells, an androgenic receptor signaling-inhibitory effect was analyzed using western blotting. […] Bands were then detected using an Azure c300 imaging system (Azure Biosystems) by chemiluminescence with an HPR substrate (Advansta Inc., San Jose, CA, USA). Band intensities were quantified by setting the area of each sample using ImageJ software (NIH ver. 1.48, USA) and then setting the area of corresponding β-actin in the same manner as used above, and dividing the area of β-actin by the area of each sample. […]

Where [12] appears, read: compared among IQ, Rutin, CA and IR.
Setting [13] is: testosterone-induced, depending on the concentration of isoquercetin.
[14] abbreviates: oral 1 mg/kg or 10 mg/kg, compared to the BPH-induced model.

Turning to `O=c1c(O[C@@H]2O[C@H](CO)[C@@H](O)[C@H](O)[C@H]2O)c(-c2ccc(O)c(O)c2)oc2cc(O)cc(O)c12` [isoquercetin, 3-(β-D-glucopyranosyloxy)-3′,4′,5,7-tetrahydroxyflavone], the “expression level of AR in prostate tissue” value in assay [1] is given as “reduced”. The “expression level of 5AR2 in prostate tissue” value in [2] is recorded as “reduced”. In addition, the PCNA expression result in assay [3] is on record as “significantly reduced”. The PI3K expression entry in assay [4] is “significantly reduced”. The “effect on testosterone-induced PSA expression level among four functional ingredient candidates” value in assay [5] is recorded as “most excellent effect”. In addition, the “cyclin D1 expression” value in assay [6] is recorded as “significantly reduced”. Further, in assay [7] (setting [12]), the “effect on testosterone-induced 5AR2 expression level among four functional ingredient candidates” value was “most excellent effect”. In assay [7] (setting [13]), the “expression of 5AR2” value is reported as “significantly reduced”. Also, the “expression of PI3K” value in [8] was “significantly reduced”. Also, in assay [9], the “expression level of SRC-1 in prostate tissue” value is given as “reduced”. Further, the prostate index entry in [10] (oral 1 mg/kg and 10 mg/kg, depending on concentration) is recorded as “lowered”. Further, in assay [10] (setting [14]), the prostate weight entry is listed as “significantly reduced” and the “ratio of the prostate weight to a body weight” value is “significantly decreased”. Moreover, the “effect on testosterone-induced AR expression level among four functional ingredient candidates” value in [11] (setting [12]) is given as “most excellent effect”. Moreover, the “expression of AR” value in assay [11] (setting [13]) is “significantly reduced”.
